The source of these data is patent publication US9783556B2, “Kinase inhibitors” (RESPIVERT LIMITED, priority 2012, dated 2017).

Assay [1] deals with p38 MAPKα isoform (MAPK14) (Homo sapiens (Human), UniProt Q16539). The assay can be described thus: p38 MAPKα enzyme inhibition (Z-LYTE FRET). The format is biochemical. How it is done:
(§1) The enzyme inhibitory activities of compounds disclosed herein are determined by FRET using synthetic peptides labelled with both donor and acceptor fluorophores (Z-LYTE, Invitrogen Ltd., Paisley, UK).
The following two assay variants can be used for determination of p38 MAPKα inhibition.
The inhibitory activities of test compounds against the p38 MAPKα isoform (MAPK14: Invitrogen), are evaluated indirectly by determining the level of activation/phosphorylation of the down-stream molecule, MAPKAP-K2. The p38 MAPKα protein (80 ng/mL, 2.5 μL) is mixed with the test compound (2.5 μL of either 4 μg/mL, 0.4 μg/mL, 0.04 μg/mL or 0.004 μg/mL) for 2 hr at RT. […] The mixture is incubated for 1 hr at RT. Development reagent (protease, 5 μL) is added for 1 hr prior to detection in a fluorescence microplate reader (Varioskan® Flash, ThermoFisher Scientific).
This method follows the same steps as Method 1 above, but utilises a higher concentration of the p38 MAPKα protein (2.5 μL of 200 ng/mL protein instead of 2.5 μL of 80 ng/mL protein) for mixing with the test compound.
(§2) In all cases, the site-specific protease cleaves non-phosphorylated peptide only and eliminates the FRET signal. Phosphorylation levels of each reaction are calculated using the ratio of coumarin emission (donor) over fluorescein emission (acceptor), for which high ratios indicate high phosphorylation and low ratios indicate low phosphorylation levels. The percentage inhibition of each reaction is calculated relative to non-inhibited control and the 50% inhibitory concentration (IC50 value) is then calculated from the concentration-response curve.

In another assay the target is c-Src (Homo sapiens (Human), UniProt P12931). Description: c-Src enzyme inhibition (Z-LYTE FRET). It is filed as biochemical. As for the experimental part:
as §1
(§3) The inhibitory activities of compounds of the invention against c-Src and Syk enzymes (Invitrogen), are evaluated in a similar fashion to that described hereinabove. The relevant enzyme (3000 ng/mL or 2000 ng/mL respectively, 2.5 μL) is incubated with the test compound (either 4 μg/mL, 0.4 μg/mL, 0.04 μg/mL, or 0.004 μg/mL, 2.5 μL each) for 2 hr at RT. The FRET peptides (8 μM, 2.5 μL), and appropriate ATP solutions (2.5 μL, 800 μM for c-Src, and 60 μM ATP for Syk) are then added to the enzymes/compound mixtures and incubated for 1 hr. Development reagent (protease, 5 μL) is added for 1 hr prior to detection in a fluorescence microplate reader (Varioskan® Flash, ThermoFisher Scientific).
as §2

Another assay has as its target Syk (Homo sapiens (Human), UniProt P43405). The assay can be described thus: Syk enzyme inhibition (Z-LYTE FRET). The format is biochemical. As for the experimental part:
as §1, §3, §2

For another assay, the target named is GSK 3α (Homo sapiens (Human), UniProt P49840). The assay can be described thus: GSK 3α enzyme inhibition (Z-LYTE FRET). The conditions noted are these: read-out: IC50 Values for Enzyme Inhibition GSK3α. It is filed as biochemical. As for the experimental part: as §1
GSK 3α, sequence (P49840 whole entry): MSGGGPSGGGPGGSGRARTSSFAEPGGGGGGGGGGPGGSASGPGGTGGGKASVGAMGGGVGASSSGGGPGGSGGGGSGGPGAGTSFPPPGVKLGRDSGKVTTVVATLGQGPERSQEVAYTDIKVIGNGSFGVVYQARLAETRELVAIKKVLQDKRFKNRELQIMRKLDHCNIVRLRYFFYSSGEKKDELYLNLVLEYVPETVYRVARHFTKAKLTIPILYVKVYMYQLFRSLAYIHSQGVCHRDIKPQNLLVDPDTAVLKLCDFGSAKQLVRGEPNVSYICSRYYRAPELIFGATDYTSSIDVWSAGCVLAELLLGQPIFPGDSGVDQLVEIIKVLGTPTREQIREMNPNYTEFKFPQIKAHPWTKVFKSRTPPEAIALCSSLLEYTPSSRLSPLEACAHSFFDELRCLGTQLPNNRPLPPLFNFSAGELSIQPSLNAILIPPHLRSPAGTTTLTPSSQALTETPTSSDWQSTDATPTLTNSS
The following two assay variants can be used for determination of GSK 3α inhibition.
The inhibitory activities of compounds of the invention against the GSK 3α enzyme isoform (Invitrogen), are evaluated by determining the level of activation/phosphorylation of the target peptide. The GSK3-α protein (500 ng/mL, 2.5 μL) is mixed with the test compound (2.5 μL at either 4 μg/mL, 0.4 μg/mL, 0.04 μg/mL, or 0.004 μg/mL) for 2 hr at RT. The FRET peptide (8 μM, 2.5 μL), which is a phosphorylation target for GSK3α, and ATP (40 μM, 2.5 μL) are then added to the enzyme/compound mixture and the resulting mixture incubated for 1 hr. Development reagent (protease, 5 μL) is added for 1 hr prior to detection in a fluorescence microplate reader (Varioskan® Flash, ThermoFisher Scientific).
as §2
This method follows the same steps as Method 1 above, but utilises a shorter period of mixing of the test compound (105 minutes instead of 2 hours) with the GSK3-α protein.

The subject of another assay is d-U937 cells. Description: LPS-induced TNFα/IL-8 release in d-U937 cells. The settings on record: Homo sapiens, dU937, LPS-stimulated d-U937 cells. The format is cell-based. As for the experimental part: U937 cells, a human monocytic cell line, are differentiated to macrophage-type cells by incubation with phorbol myristate acetate (PMA; 100 ng/mL) for 48 to 72 hr. Cells are pre-incubated with final concentrations of test compound for 2 hr and are then stimulated with 0.1 μg/mL of LPS (from E. Coli: O111:B4, Sigma) for 4 hr. The supernatant is collected for determination of TNFα and IL-8 concentrations by sandwich ELISA (Duo-set, R&D systems). The inhibition of TNFα production is calculated as a percentage of that achieved by 10 μg/mL of BIRB796 at each concentration of test compound by comparison against vehicle control. The relative 50% effective concentration (REC50) is determined from the resultant concentration-response curve. The inhibition of IL-8 production is calculated at each concentration of test compound by comparison with vehicle control. The 50% inhibitory concentration (IC50) is determined from the resultant concentration-response curve.

For assay [2], the system named is PBMCs. Description: LPS-induced TNFα/IL-8 release in PBMC cells. It is filed as cell-based. The conditions noted are these: Homo sapiens, LPS-stimulated PBMCs. How it is done: Peripheral blood mononuclear cells (PBMCs) from healthy subjects are separated from whole blood using a density gradient (Lymphoprep, Axis-Shield Healthcare). The PBMCs are seeded in 96 well plates and treated with compounds at the desired concentration for 2 hours before addition of 1 ng/mL LPS (Escherichia Coli 0111:B4 from Sigma Aldrich) for 24 hours under normal tissue culture conditions (37° C., 5% CO2). The supernatant is harvested for determination of IL-8 and TNFα concentrations by sandwich ELISA (Duo-set, R&D systems) and read on the fluorescence microplate reader (Varioskan® Flash, ThermoFisher Scientific). The concentration at 50% inhibition (IC50) of IL-8 and TNFα production is calculated from the dose response curve.

The subject of assay [3] is PBMCs. The assay can be described thus: IL-2 and IFN gamma release in CD3/CD28 stimulated PBMC cells. The format is cell-based. The settings on record: Homo sapiens, IL-2, read-out: IC50 Values for Inhibition of Cytokine Release PBMCs IL-2. As for the experimental part:
PBMCs from healthy subjects are separated from whole blood using a density gradient (Lymphoprep, Axis-Shield Healthcare). Cells are added to a 96 well plate pre-coated with a mixture of CD3/CD38 monoclonal antibodies (0.3 μg/mL eBioscience and 3 μg/mL BD Pharmingen respectively). Compound at the desired concentration is then added to the wells and the plate left for 3 days under normal tissue culture conditions. Supernatants are harvested and IL-2 and IFN gamma release determined by Sandwich ELISA (Duo-set, R&D System). The IC50 is determined from the dose response curve.

The next assay concerns HT29 cells. The assay can be described thus: IL-1β-induced IL-8 release in HT29 cells. It is filed as cell-based. The conditions noted are these: Homo sapiens, HT-29, IL-1β-stimulated HT29 cells, read-out: IC50 Values for Inhibition of Cytokine Release HT29 cells IL-8. How it is done: HT29 cells, a human colon adenocarcinoma cell line, are plated in a 96 well plate (24 hrs) and pre-treated with compounds at the desired concentration for 2 hours before addition of 5 ng/mL of IL-1β (Abcam) for 24 hours. Supernatants are harvested for IL-8 quantification by Sandwich ELISA (Duo-set, R&D System). The IC50 is determined from the dose response curve.

[4] abbreviates: IL-8, read-out: IC50 Values for Inhibition of Cytokine Release dU937 cells IL-8.
Setting [5] is: TNFα, method describes REC50 relative to BIRB796, read-out: IC50 Values for Inhibition of Cytokine Release dU937 cells TNFα.
Where [6] appears, read: IL-8, read-out: IC50 Values for Inhibition of Cytokine Release PBMCs IL-8.
Where [7] appears, read: TNFα, read-out: IC50 Values for Inhibition of Cytokine Release PBMCs TNFα.

Where two headings read alike, the source gives them in different places.

p38 MAPKα isoform (MAPK14), sequence (Q16539 whole entry, canonical isoform): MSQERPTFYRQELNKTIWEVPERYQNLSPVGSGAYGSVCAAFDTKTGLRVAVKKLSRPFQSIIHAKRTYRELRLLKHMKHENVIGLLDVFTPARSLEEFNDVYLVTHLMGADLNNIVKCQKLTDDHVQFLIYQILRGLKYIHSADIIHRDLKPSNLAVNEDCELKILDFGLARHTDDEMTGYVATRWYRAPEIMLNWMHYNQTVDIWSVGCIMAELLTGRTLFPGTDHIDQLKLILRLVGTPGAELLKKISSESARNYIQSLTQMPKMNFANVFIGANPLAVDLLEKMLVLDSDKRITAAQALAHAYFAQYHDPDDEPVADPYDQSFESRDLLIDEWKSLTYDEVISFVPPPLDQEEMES
c-Src, sequence (P12931 whole entry, looked up): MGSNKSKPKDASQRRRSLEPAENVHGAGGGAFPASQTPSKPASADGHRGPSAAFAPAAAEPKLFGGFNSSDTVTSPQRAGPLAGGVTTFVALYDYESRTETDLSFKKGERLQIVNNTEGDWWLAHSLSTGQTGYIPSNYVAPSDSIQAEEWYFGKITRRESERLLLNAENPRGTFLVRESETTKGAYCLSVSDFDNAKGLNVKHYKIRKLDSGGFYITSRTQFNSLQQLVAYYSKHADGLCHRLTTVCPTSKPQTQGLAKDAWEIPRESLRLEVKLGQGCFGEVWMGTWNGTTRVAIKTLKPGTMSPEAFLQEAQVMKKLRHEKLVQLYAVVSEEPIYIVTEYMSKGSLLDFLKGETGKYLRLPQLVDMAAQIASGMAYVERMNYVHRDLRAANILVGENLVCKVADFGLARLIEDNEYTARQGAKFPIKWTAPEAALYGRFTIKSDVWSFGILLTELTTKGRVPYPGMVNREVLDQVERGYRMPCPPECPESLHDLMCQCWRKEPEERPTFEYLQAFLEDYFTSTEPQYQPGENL

For the molecule `Cc1ccc(-n2nc([Si](C)(C)C)cc2NC(=O)Nc2ccc(Oc3ccnc(Nc4cc(C)c5[nH]ncc5c4)n3)c3ccccc23)cc1` [Example 9, 1-(4-((2-((7-Methyl-1H-indazol-5-yl)amino)pyrimidin-4-yl)oxy)naphthalen-1-yl)-3-(1-(p-tolyl)-3-(trimethylsilyl)-1H-pyrazol-5-yl)urea], the IC50 in assay [1] is 358 nM; on c-Src, 135 nM; on Syk it was 520 nM; at GSK 3α, greater than 10 µM; in the assay with d-U937 cells (setting [4]), 2.6 nM; with d-U937 cells (setting [5]), 1.2 nM. In addition, the half-maximal inhibitory concentration (IC50) turned out to be 3.4 nM with PBMCs [2] (setting [6]), 41.2 nM in the assay with PBMCs [3] and 4.8 nM in the assay on HT29 cells.

`Cc1ccc(-n2nc([Si](C)(C)C)cc2NC(=O)Nc2ccc(Oc3ccnc(Nc4ccc5c(c4)NC(=O)C5)n3)c3ccccc23)cc1` [Example 10, 1-(4-((2-((2-Oxoindolin-6-yl)amino)pyrimidin-4-yl)oxy)naphthalen-1-yl)-3-(1-(p-tolyl)-3-(trimethylsilyl)-1H-pyrazol-5-yl)urea]: the 50% inhibitory concentration (IC50) in assay [1] was 541 nM; at c-Src, 19 nM; against Syk it was 990 nM; at GSK 3α it was greater than 10 µM; in the assay with d-U937 cells (setting [4]), 2 nM; in the assay with d-U937 cells (setting [5]), 1.6 nM. The values for the 50% inhibitory concentration (IC50) in the assay on PBMCs [2] (setting [6]), in the assay on PBMCs [3] and in the assay with HT29 cells were 3.5 nM, 196 nM and 5 nM, respectively.

For the molecule `COc1cc(Nc2nccc(Oc3ccc(NC(=O)Nc4cc([Si](C)(C)C)nn4-c4ccc(C)cc4)c4ccccc34)n2)cc(OCCN2CCOCC2)c1` [Example 13, 1-(4-((2-((3-Methoxy-5-(2-morpholinoethoxy)phenyl)amino)pyrimidin-4-yl)oxy)naphthalen-1-yl)-3-(1-(p-tolyl)-3-(trimethylsilyl)-1H-pyrazol-5-yl)urea], the 50% inhibitory concentration (IC50) in assay [1] was greater than 1000 nM; on c-Src, 170 nM; at Syk it was 106 nM; at GSK 3α, 5.64 µM; in the assay with d-U937 cells (setting [4]), 1.4 nM; in the assay with d-U937 cells (setting [5]), 1.1 nM. Also, the IC50 in the assay with PBMCs [2] (setting [6]) is 2.3 nM; in the assay with PBMCs [3], 3.9 nM; in the assay with HT29 cells, 4.3 nM.

Turning to `C[Si](C)(C)c1cc(NC(=O)Nc2ccc(Oc3ccnc(Nc4ccccc4)n3)c3ccccc23)n(-c2ccc(OCCN3CCOCC3)cc2)n1` [Example 3, 1-(1-(4-(2-Morpholinoethoxy)phenyl)-3-(trimethylsilyl)-1H-pyrazol-5-yl)-3-(4-((2-(phenylamino)pyrimidin-4-yl)oxy)naphthalen-1-yl)urea], the IC50 in assay [1] was 347 nM; on c-Src, 227 nM; against Syk, greater than 1000 nM; at GSK 3α it was 4.99 µM; in the assay with d-U937 cells (setting [4]), 18 nM; with d-U937 cells (setting [5]), 2 nM. In addition, the figures for the IC50 with PBMCs [2] (setting [6]), in the assay on PBMCs [3] and in the assay with HT29 cells were 9.4 nM, 76.8 nM and 13.4 nM, respectively.

On to `Cc1ccc(-n2nc([Si](C)(C)C)cc2NC(=O)Nc2ccc(Oc3ccnc(Nc4ccc5[nH]ncc5c4)n3)c3ccccc23)cc1` [Example 7, 1-[4-[2-(1H-Indazol-5-ylamino)pyrimidin-4-yl]oxy-1-naphthyl]-3-[2-(p-tolyl)-5-trimethylsilyl-pyrazol-3-yl]urea], for which the IC50 in assay [1] is 380 nM; against c-Src it was 45 nM; on Syk, 673 nM; on GSK 3α it was greater than 10 µM; in the assay on d-U937 cells (setting [4]), 8.6 nM; in the assay with d-U937 cells (setting [5]), 1.9 nM. Also, the IC50 was determined as 12 nM in the assay with PBMCs [2] (setting [6]), 3.3 nM in the assay on PBMCs [2] (setting [7]), 47.5 nM in the assay on PBMCs [3] and 16.6 nM with HT29 cells.

`Cc1ccc(-n2nc([Si](C)(C)C)cc2NC(=O)Nc2ccc(Oc3ccnc(Nc4cccc(OCCN5CCOCC5)c4)n3)c3ccccc23)cc1` [Example 6, 1-(4-((2-((3-(2-Morpholinoethoxy)phenyl)amino)pyrimidin-4-yl)oxy)naphthalen-1-yl)-3-(1-(p-tolyl)-3-(trimethylsilyl)-1H-pyrazol-5-yl)urea]: the IC50 in assay [1] was 314 nM; against c-Src, 10 nM; against Syk, 7 nM; on GSK 3α, greater than 2 µM; with d-U937 cells (setting [4]) it was 1.8 nM; with d-U937 cells (setting [5]), 1.5 nM. The concentration for half-maximal inhibition (IC50) with PBMCs [2] (setting [6]) was 4.8 nM; with PBMCs [2] (setting [7]), 0.7 nM; in the assay on PBMCs [3], 15.7 nM; in the assay with HT29 cells it was 8.7 nM.

For `COc1ccc(-n2nc([Si](C)(C)C)cc2NC(=O)Nc2ccc(Oc3ccnc(Nc4ccccc4)n3)c3ccccc23)cn1` [Example 2, 1-(1-(6-Methoxypyridin-3-yl)-3-(trimethylsilyl)-1H-pyrazol-5-yl)-3-(4-((2-(phenylamino)pyrimidin-4-yl)oxy)naphthalen-1-yl)urea], the IC50 in assay [1] was 329 nM; against c-Src, 93 nM; on Syk it was greater than 1000 nM; on GSK 3α, 3.24 µM; with d-U937 cells (setting [4]) it was 2.6 nM; in the assay on d-U937 cells (setting [5]), 1.8 nM. The IC50 in the assay on PBMCs [2] (setting [6]) was 8.4 nM; in the assay on PBMCs [2] (setting [7]) it was 2.7 nM; in the assay on PBMCs [3], 128 nM; in the assay on HT29 cells, 12.1 nM.

What is called IC50 is the midpoint of a concentration-inhibition curve.
